A value given as a limit tells only on which side of the number the result lay.

The test system of test [1] is MMP1 expression by activated synovial fibroblasts (RASFs). The test can be described thus: MMP assay: MMP1 expression by RASFs triggered with TNF-α (MMP1 ELISA). Type of test: cell-based. The settings on record: Fibroblast, 48 h, TNF-α trigger 10 ng/mL, semi-quantitative score, read-out: REDUCTION MMP1/TNFa. On the procedure:
A 384-well format ELISA for measurement of MMP1 is developed. Various primary antibodies are tested, as well as various ELISA protocols. The following protocol is developed and validated to measure MMP1 levels in SF supernatant in 384 well plates: white Lumitrac 600 384 well plates (Greiner) are coated with 2 μg/mL anti-MMP1 antibody MAB1346 (Chemicon). The antibody is diluted in buffer 40 (1.21 g Tris base (Sigma), 0.58 g NaCl (Calbiochem) and 5 mL 10% NaN3 (Sigma) in 1 L milliQ water and adjusted to pH 8.5). After overnight incubation at 4° C., plates are washed with PBS (80 g NaCl, 2 g KCl (Sigma), 11.5 g Na2HPO4.7H2O and 2 g KH2PO4 in 10 L milliQ; pH 7.4) and blocked with 100 μL/well Casein buffer (2% Casein (VWR International) in PBS). Next day, casein buffer is removed from ELISA plates and replaced by 50 μL/well EC buffer (4 g casein, 2.13 g Na2HPO4 (Sigma), 2 g bovine albumin (Sigma), 0.69 g NaH2PO4.H2O (Sigma), 0.5 g CHAPS (Roche), 23.3 g NaCl, 4 mL 0.5 M EDTA pH 8 (Invitrogen), 5 mL 10% NaN3 in 1 L milliQ and adjusted to pH 7.0). 0.25 mM DTT (Sigma) is added to the thawed sample plates. After removal of the EC buffer, 20 μL of sample is transferred to the ELISA plates. After overnight incubation at 4° C. plates are washed twice with PBS and once with PBST (PBS with 0.05% Tween-20 (Sigma)) and incubated with 35 μL/well biotinylated anti-MMP1 antibody solution (R&D). This secondary antibody is diluted in buffer C (0.82 g NaH2PO4.H2O, 4.82 g Na2HPO4, 46.6 g NaCl, 20 g bovine albumin and 4 mL 0.5M EDTA pH 8 in 2 L milliQ and adjusted to pH 7.0) at a concentration of 5 μg/mL. After 2 h of incubation at RT, plates are washed as described above and incubated with 50 μL/well streptavidin-HRP conjugate (Biosource). Streptavidin-HRP conjugate is diluted in buffer C at a concentration of 0.25 μg/mL. After 45 min, plates are washed as described above and incubated for 5 min with 50 μL/well BM Chem ELISA Substrate (Roche). Readout is performed on the Luminoscan Ascent Luminometer (Labsystems) with an integration time of 200 msec or with an Envision reader (Perkin Elmer).
SFs were acquired at passage 1 from a commercial supplier (Cell applications, Inc.). SFs are cultured in DMEM supplemented with 10% heat-inactivated FBS, 1× penicillin/streptomycin (Invitrogen) at 37° C., 10% CO2 until passage 6. Aliquots of the cells are frozen and cryopreserved in liquid nitrogen. Starting from a cryopreserved aliquot, cells are further expanded by sub-culturing cells at 1/3 ratio every week. Cells between passage 10 and 12 are routinely used in compound testing according to following protocol.
Starting from the compound master stocks (all at 10 mM concentration in 100% DMSO) a 3-fold serial dilution is made in 96-well plates in 100% DMSO. Then, plates are further diluted 45-fold in M199 medium supplemented with 1% heat-inactivated FBS to obtain a intermediate work stock.
At day 1, RASFs are seeded in 96 well plates (flat bottom, tissue culture treated, Greiner) at a density of 3000 cells/well in complete synovial growth medium (Cell Applications). Day 5, the medium is completely removed from the cells, and replaced by 81 μL of M199 medium supplemented with 1% heat-inactivated FBS followed by addition of 10 μL compound out of the intermediate work stock. After an incubation period of 90 minutes, which allows the compounds to equilibrate and enter the cells, cells are stimulated with either TNF-α or ‘complex trigger’. TNF-α trigger is added in a volume of […] to obtain final concentration of 10 ng/mL. For that, TNF-α stock (PeproTech) at 10 μg/mL was diluted to 100 ng/mL TNF-a in M199 medium supplemented with 1% FBS. ‘Complex trigger’ mix is added in a volume of 20 μL to obtain a final concentration of 12.5%. For that, ‘complex trigger’ mix, is diluted to 80% with M199 medium supplemented with 1% FBS. […]

In test [2] the target is T1, TAK1-TAB1 fusion protein (Homo sapiens, UniProt O43318).
T1 construct: purchased Upstate 14-600
T1 sequence (O43318 with tags, fused parts or gaps limits assumed): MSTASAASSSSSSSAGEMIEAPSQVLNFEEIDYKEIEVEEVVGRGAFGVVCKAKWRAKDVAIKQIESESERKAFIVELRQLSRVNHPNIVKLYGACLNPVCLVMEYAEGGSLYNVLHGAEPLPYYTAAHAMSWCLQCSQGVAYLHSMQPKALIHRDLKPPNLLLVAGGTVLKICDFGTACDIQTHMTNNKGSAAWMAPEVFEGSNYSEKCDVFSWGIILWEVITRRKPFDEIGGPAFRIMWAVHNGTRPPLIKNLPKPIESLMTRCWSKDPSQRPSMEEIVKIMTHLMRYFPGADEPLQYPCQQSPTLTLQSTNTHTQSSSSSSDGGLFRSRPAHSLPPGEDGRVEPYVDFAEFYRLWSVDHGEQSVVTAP
The test can be described thus: In vitro TAK1 kinase assay. Type of test: biochemical. The conditions noted are these: casein substrate, [33P]-γ-ATP, 90 minutes at 30° C., semi-quantitative score, read-out: POTENCY TAK1 (MAP3K7). Here is the method: For assessing TAK1 inhibition, active TAK1-TAB1 fusion protein was used from Upstate (Cat. No, 14-600). Kinase reactions are set up in 96-well polypropylene plates in 25 μL containing 0.5 mU TAK1-TAB1 fusion protein, 5mM ATP, 0.01 μCi/μL [^33P]-γ-ATP, 0.1 mg/mL casein substrate in 1× reaction buffer containing 10 mM MOPS pH 7.0, 1 mM EDTA.
Starting from the compound master stocks (all at 10 mM concentration in 100% DMSO) a 3-fold serial dilution is made in 96-well plates in 100% DMSO. Plates are further diluted […] in H2O containing 3.5% DMSO, to obtain an intermediate work stock with compounds at 5× the final assay concentration in 5% DMSO.
5 μL of the intermediate stock is transferred into V-bottom 96 well polypropylene plates and 11 μL of Enzyme mix is added. Enzyme mix is made by combining 5 μL 5× reaction buffer ([…] pH 7.0, 1 mM EDTA), 5 μL casein (Sigma) diluted in H20 to 0.5 mg/mL and 1 μL of TAK1-TAB1 fusion protein that was prediluted to 0.5 mU/μL in 1× enzyme dilution buffer (20 mM MOPS pH 7.0, 0.1 mM EDTA, 0.01% Brij-35, 5% glycerol, 1 mM DTT, 1 mg/ml BSA).
The reactions are started by the addition of 9 μL of mixture containing ATP (20.83 uM) and [^33P]-γ-ATP (0.028 μCi/μL).
The assay is stopped 90 minutes after incubation at 30° C. by the addition of 25 μL phosphoric acid (150 mM). The label incorporated into the casein substrate is separated from labeled unincorporated ATP by filtration onto 96-well filter plates using a harvester device. After 6 washes with 75 mM phosphoric acid, the bottom of the filter plates are sealed, and incorporated label is quantified after addition of 40 μL scintillation fluid using TopCount.

With `c1nc2c(Nc3ccc(N4CCOCC4)cc3)ccc(-c3ccc4cc[nH]c4c3)n2n1` [Example 52, 5-(1H-indol-6-yl)-N-(4-morpholin-4-ylphenyl)[1,2,4]triazolo[1,5-a]pyridin-8-amine], the IC50 in test [1] and in test [2] was above 10 µM each time.

Regarding `O=c1cc(-c2ccc(Nc3ccc(N4CCN(C5CCCCC5)CC4)cc3)c3ncnn23)cc[nH]1` [Example 25, 4-(8-{[4-(4-cyclohexylpiperazin-1-yl)phenyl]amino}[1,2,4]triazolo[1,5-a]pyridin-5-yl)pyridin-2(1H)-one], the IC50 is 1 to 5 µM in test [1] and below 0.5 µM in test [2].

For the compound `NC(=O)c1cc(-c2ccc(Nc3ccc(N4CCOCC4)cc3)c3ncnn23)ccc1F` [Example 45, 2-fluoro-5-{8-[(4-morpholin-4-ylphenyl)amino][1,2,4]triazolo[1,5-a]pyridin-5-yl}benzamide], the IC50 in test [1] and in test [2] was above 10 µM each time.

As to `CC(C)N1CCN(c2ccc(Nc3ccc(-c4ccc5cc[nH]c5c4)n4ncnc34)cc2)CC1` [Example 53, 5-(1H-indol-6-yl)-N-[4-(4-isopropylpiperazin-1-yl)phenyl][1,2,4]triazolo[1,5-a]pyridin-8-amine], the IC50 in test [1] and in test [2] was above 10 µM throughout.

As for `CCCN1CCN(c2ccc(Nc3ccc(-c4ccc(C(N)=O)cc4)n4ncnc34)cc2)CC1` [Example 13, 4-(8-{[4-(4-propylpiperazin-1-yl)phenyl]amino}[1,2,4]triazolo[1,5-a]pyridin-5-yl)benzamide], the figures for the IC50 in test [1] and in test [2] were above 10 µM and below 0.5 µM, respectively.

For `CCC(CC)N1CCN(c2ccc(Nc3ccc(-c4cn[nH]c4)n4ncnc34)cc2)CC1` [Example 34, N-{4-[4-(1-ethylpropyl)piperazin-1-yl]phenyl}-5-(1H-pyrazol-4-yl)[1,2,4]triazolo[1,5-a]pyridin-8-amine], the IC50 in test [1] is 1 to 5 µM; in test [2], below 0.5 µM.

`COc1ncc(-c2ccc(Nc3ccc(N4CCN(C(C)C)CC4)cc3)c3ncnn23)c(OC)n1` [Example 56, 5-(2,4-dimethoxypyrimidin-5-yl)-N-[4-(4-isopropylpiperazin-1-yl)phenyl][1,2,4]triazolo[1,5-a]pyridin-8-amine]: the IC50 in test [1] and in test [2] was above 10 µM each time.

As to `O=c1cc(-c2ccc(Nc3ccc(N4CCN(C5CC5)CC4)cc3)c3ncnn23)cc[nH]1` [Example 23, 4-(8-{[4-(4-cyclopropylpiperazin-1-yl)phenyl]amino}[1,2,4]triazolo[1,5-a]pyridin-5-yl)pyridin-2(1H)-one], the IC50 in test [1] is 1 to 5 µM; in test [2] it was below 0.5 µM.

As to `c1nc2c(Nc3ccc(N4CCOCC4)cc3)ccc(-c3ccc4[nH]ccc4c3)n2n1` [Example 50, 5-(1H-indol-5-yl)-N-(4-morpholin-4-ylphenyl)[1,2,4]triazolo[1,5-a]pyridin-8-amine], the IC50 in test [1] was 1 to 5 µM; in test [2], above 10 µM.

As for `NC(=O)c1ccc(-c2ccc(Nc3ccc(N4CCN(C5CCC5)CC4)cc3)c3ncnn23)cc1` [Example 16, 4-(8-{[4-(4-cyclobutylpiperazin-1-yl)phenyl]amino}[1,2,4]triazolo[1,5-a]pyridin-5-yl)benzamide], the IC50 in test [1] was 5 to 10 µM; in test [2], below 0.5 µM.

Consider `CCC(CC)N1CCN(c2ccc(Nc3ccc(-c4ccnc(OC)c4)n4ncnc34)cc2)CC1` [Example 28, N-{4-[4-(1-ethylpropyl)piperazin-1-yl]phenyl}-5-(2-methoxypyridin-4-yl)[1,2,4]triazolo[1,5-a]pyridin-8-amine], for which the IC50 in test [1] is 1 to 5 µM; in test [2], above 10 µM.

Take `CCC(CC)N1CCN(c2ccc(Nc3ccc(-c4cc[nH]c(=O)c4)n4ncnc34)cc2)CC1` [Example 21, 4-[8-({4-[4-(1-ethylpropyl)piperazin-1-yl]phenyl}amino)[1,2,4]triazolo[1,5-a]pyridin-5-yl]pyridin-2(1H)-one]: the IC50 in test [1] was above 10 µM; in test [2] it was below 0.5 µM.

With `CCC(CC)N1CCN(c2ccc(Nc3ccc(-c4ccc(C(N)=O)cc4)n4ncnc34)cc2)CC1` [Example 14, 4-[8-({4-[4-(1-ethylpropyl)piperazin-1-yl]phenyl}amino)[1,2,4]triazolo[1,5-a]pyridin-5-yl]benzamide], the IC50 is above 10 µM in test [1] and below 0.5 µM in test [2].

As for `CC(C)N1CCN(c2ccc(Nc3ccc(-c4ccc(F)c(C(N)=O)c4)n4ncnc34)cc2)CC1` [Example 46, 2-fluoro-5-(8-{[4-(4-isopropylpiperazin-1-yl)phenyl]amino}[1,2,4]triazolo[1,5-a]pyridin-5-yl)benzamide], the IC50 in test [1] and in test [2] was above 10 µM throughout.

For `CCCN1CCN(c2ccc(Nc3ccc(-c4cc[nH]c(=O)c4)n4ncnc34)cc2)CC1` [Example 20, 4-(8-{[4-(4-propylpiperazin-1-yl)phenyl]amino}[1,2,4]triazolo[1,5-a]pyridin-5-yl)pyridin-2(1H)-one], the results for the IC50 in test [1] and in test [2] were 1 to 5 µM and below 0.5 µM, respectively.

For the origin of these results see US7977352B2, “Triazolopyridine compounds useful for the treatment of degenerative and inflammatory diseases” (Galapagos NV, priority 2006, dated 2011).
